Measurements from a melting point compilation (Tetko et al.; mined from patent text by program, amines drawn as free bases though some values may be those of a salt).

melting point [°C]	SMILES
192 to 193	COc1cc(OC)c2cc(-c3ccc([N+](=O)[O-])cc3)oc2c1
228	CNC(=S)N1CCc2[nH]cnc2C1c1ccccc1 (stereo unspecified)
49 to 50.5	Clc1ccc(OCc2ccccc2)c(Br)c1
84 to 88	CC(=O)SCC(=O)c1cc(S(=O)(=O)N(C)C)ccc1Cl
156 to 157	Nc1ccc(F)c(O)c1
187 to 188	COc1cccc(NC(=O)c2cc(-c3ccc(F)cc3F)ccc2O)c1
75 to 77	CC(C)OC(=O)Nc1cccc(O)c1
209 to 214	Cc1ccc(C(=O)Nc2ccccc2C(=O)NCCc2ncc[nH]2)cc1
202 to 203	CC(C)(C)c1cc(CCc2ccccc2NC(=O)NC2CCC(O)CC2)cc(C(C)(C)C)c1O (stereo unspecified)
54 to 56	CC(=O)OC/C=C/c1ccc(-c2ccccc2C)cc1
133 to 135	COc1ccc2nccc(NC(=O)N3CCN(CC(O)c4cnc5ccccc5n4)CC3)c2n1 (stereo unspecified)
167	CC(C)[C@@H]1O[C@](C#CC2CC2)(C(F)(F)F)c2cc(Cl)ccc2NC1=O (relative stereo)
73 to 74	O=C(Nc1ccc(F)c(Cl)c1F)C(F)(F)F
125 to 126	CC(O)C1(c2cccc(Cl)c2)CCN(C)CC1 (stereo unspecified)
72 to 75	CCCCCCCCCCCCCCOc1ccc(CNc2cccc(CO)c2)cc1
87 to 87.5	CC(=O)c1csc(-c2ccncc2)c1C
135 to 137	CN1C(=O)C(c2cccc(-c3ccccc3)c2)(C2CCN(C(=O)c3cccs3)CC2)N=C1N (stereo unspecified)
> 200	NCC1Cc2cccc(-c3ccsc3)c2O1 (stereo unspecified)
135 to 137	COC[C@@H](NS(=O)(=O)c1ccc2c(Cl)cnc(Cl)c2c1)C(=O)OC(C)(C)C
38 to 43	CC(C)OC(=O)c1cc(I)c(F)cc1Cl
169 to 171	NC(=O)CN1CCN(c2cccccc2=O)CC1
108 to 110	O=C1c2ccccc2C(=O)N1C/C=C/CCl

The remaining lines, values behind:

SMILES	melting point [°C]
CN(C)c1ccc2c(=O)[nH]c(=O)n(CCCCN3CCC(OC(c4ccccc4)c4ccccc4)CC3)c2c1	203 to 204
Cn1cc(Cl)c(-n2ccnc2S(N)(=O)=O)n1	208 to 210
CCOC(=O)c1cn(C2CC2)c2c(F)c(NCCO)c(F)c(F)c2c1=O	193 to 195
Cc1cc(-n2ccnc2)c2cccc(OCc3c(Cl)ccc(S(=O)(=O)N4CCC[C@H]4C(=O)N(C)CCCN(C)CCCCO)c3Cl)c2n1	82
CC(C)(C)CC(C)(C)c1cc(Cc2cc(C(C)(C)C)cc(-n3nc4ccccc4n3)c2O)c(O)c(C(C)(C)CC(C)(C)C)c1	166
c1ccc2nc(N3CCNCC3)c(OCCOc3cncnc3)nc2c1	115 to 117
COC12CC(CN3CCC(c4c[nH]c5ccccc45)CC3)CN(C)C1Cc1c[nH]c3cccc2c13 (stereo unspecified)	222 to 227
CCCCn1nc(SCCCCCC(=O)O)c(C(=O)O)c1Cc1cc2c(cc1Cl)OCO2	70
O=C1NC(=O)c2c1cc1ccc3c(c1c2-c1cccnc1)OCO3	323 to 325
O=Cc1c[nH]c2c1ccc1c3ccccc3[nH]c12	> 290
Cc1ccc(-c2ccccc2C2=NC(C)(C)CO2)cc1	56 to 59
NS(=O)(=O)OCCOS(N)(=O)=O	98.5 to 101
CCCn1nc2c(N)nc3ccccc3c2c1NCCC1CCN(S(C)(=O)=O)CC1	204 to 207
CN1CC23CC(c4ccccc4C2C1=O)c1ccccc13 (stereo unspecified)	141 to 146
Cc1ccc(N=C(N(Cc2ccccc2)C2CCCCC2)N(Cc2ccccc2)C2CCCCC2)cc1	128 to 130
Cn1cncc1-c1cnc(-c2ccccc2)nc1	144
COc1ccccc1-n1c(=O)[nH]c2c(C(N)=O)nc(-c3ccccc3C(F)(F)F)nc21	237 to 240
Cc1cc(=O)[nH]c(=S)n1C1CCCCC1	240 to 243
C=CCOc1cc(OC(=S)N2CCSC2)ccc1Cl	104 to 106
